Test results from patent US11584765B2 (priority 2017, dated 2023).

System: C57BL/6 mice
Experiment: animal or person
Type: in vivo
Settings: Mus musculus, sc, 0.5 h, s.c. administration, 30 min, 55° C. water, read-out: ED50 (mg/kg) at 30 min on C57BL/6 mice in Warm-water Tail-flick Test

Row | Compound | ED50
1 | CC(=O)Nc1ccc(CN2CCC(CCc3ccccc3)(C3C=CCO3)CC2)cc1 (centres unmarked) [Compound 74, N-(4-((4-(2,5-dihydrofuian-2-yl)-4-phenethylpiperidin-1-yl)methyl)phenyl)acetamide] | < 10 mg/kg
2 | COC1(CCc2ccccc2)CCN(Cc2ccc(NC(C)=O)cc2)CC1 [Compound 75, N-(4-((4-methoxy-4-phenethylpiperidin-1-yl)methyl)phenyl)acetamide] | > 10 mg/kg
3 | COCCC1(CCc2ccccc2)CCN(Cc2ccc(NC(C)=O)cc2)CC1.Cl [Compound 76, N-(4-((4-(2-methoxyethyl)-4-phenethylpiperidin-1-yl)methyl)phenyl)acetamide HCl] | > 10 mg/kg
4 | CCOC(=O)NCC1(CCc2ccccc2)CCN(Cc2ccc(NC(C)=O)cc2)CC1 [Compound 77, ethyl (1-(4-acetamidobenzyl)-4-phenethylpiperidin-4-yl)methylcarbamate] | > 10 mg/kg
5 | CCOCC1(CCc2ccccc2)CCN(Cc2ccccc2)CC1 [Compound 78, 1-benzyl-4-(ethoxymethyl)-4-phenethylpiperidine] | > 10 mg/kg
6 | CCOCC1(CCc2ccccc2)CCN(C)CC1 [Compound 79, 4-(ethoxymethyl)-1-methyl-4-phenethylpiperidine] | > 10 mg/kg
7 | C=CCN1CCC(CCc2ccccc2)(COCC)CC1 [Compound 80, 1-allyl-4-(ethoxymethyl)-4-phenethylpiperidine] | > 10 mg/kg
8 | CCOCC1(CCc2ccccc2)CCN(Cc2ccc(NC(=O)CC)cc2)CC1 [Compound 81, N-(4-((4-(ethoxymethyl)-4-phenethylpiperidin-1-yl)methyl)phenyl)pro-pionamide] | > 10 mg/kg
9 | CCCCC(=O)Nc1ccc(CN2CCC(CCc3ccccc3)(COCC)CC2)cc1 [Compound 82, N-(4-((4-(ethoxymethyl)-4-phenethylpiperidin-1-yl)methyl)phenyl)pen-tanamide] | > 10 mg/kg
10 | CCOCC1(CCc2ccccc2)CCN(Cc2ccc(NC(N)=O)cc2)CC1 [Compound 83, 1-(4-((4-(ethoxymethyl)-4-phenethylpiperidin-1-yl)methyl)phenyl)urea] | > 10 mg/kg
11 | CCOCC1(CCc2ccccc2)CCN(Cc2ccc(NC(C)=O)c(F)c2)CC1 [Compound 84, N-(4-((4-(ethoxymethyl)-4-phenethylpiperidin-1-yl)methyl)-2-fluorophenyl)acetamide] | > 10 mg/kg
12 | CCOCC1(CCc2ccccc2)CCN(Cc2ccc(NC(C)=O)cc2F)CC1 [Compound 85, N-(4-((4-(ethoxymethyl)-4-phenethylpiperidin-1-yl)methyl)-3-fluorophenyl)acetamide] | > 10 mg/kg
13 | CCOCC1(CCc2ccccc2)CCN(Cc2ccc(NC(C)=O)s2)CC1.Cl [Compound 86, N-(5-((4-(ethoxymethyl)-4-phenethylpiperidin-1-yl)methyl)thiophen-2-yl)acetamide HCl] | > 10 mg/kg
14 | CCOCC1(CCc2ccccc2)CCN(Cc2cnc(NC(C)=O)s2)CC1 [Compound 87, N-(5-((4-(ethoxymethyl)-4-phenethylpiperidin-1-yl)methyl)thiazol-2-yl)acetamide] | > 10 mg/kg
15 | CCOCC1(CCc2ccccc2)CCN(Cc2ccc(NCC(F)(F)F)cc2)CC1 [Compound 88, 4-((4-(ethoxymethyl)-4-phenethylpiperidin-1-yl)methyl)-N-(2,2,2-trifluoroethyl)aniline] | > 10 mg/kg
16 | CCOCC1(CCc2ccccc2)CCN(Cc2ccc(C(N)=O)cc2)CC1 [Compound 89, 4-((4-(ethoxymethyl)-4-phenethylpiperidin-1-yl)methyl)benzamide] | > 10 mg/kg
17 | CCOCC1(CCc2ccccc2)CCN(Cc2ccc(C(=O)NC)cc2)CC1 [Compound 90, 4-((4-(ethoxymethyl)-4-phenethylpiperidin-1-yl)methyl)-N-methylbenzamide] | > 10 mg/kg
18 | CC(=O)Nc1ccc(CN2CCC(CCc3ccccc3)(C3CCO3)CC2)cc1 (centres unmarked) [Compound 91, N-(4-((4-(oxetan-2-yl)-4-phenethylpiperidin-1-yl)methyl)phenyl)acetamide] | < 10 mg/kg
19 | CCOCC1(CCc2ccccc2)CCN(Cc2ccc(NC(C)=O)cn2)CC1 [Compound 92, N-(6-((4-(ethoxymethyl)-4-phenethylpiperidin-1-yl)methyl)pyridin-3-yl)acetamide] | > 10 mg/kg
20 | CCCOCC1(CCc2ccccc2)CCN(Cc2ccc(NC(C)=O)cc2)CC1 [Compound 93, N-(4-((4-phenethyl-4-(propoxy-methyl)piperidin-1-yl)methyl)phenyl)acetamide] | > 10 mg/kg
21 | CC(=O)Nc1ccc(CN2CCC(CCc3ccccc3)(C3CO3)CC2)cc1 (centres unmarked) [Compound 94, N-(4-((4-(oxiran-2-yl)-4-phenethylpiperidin-1-yl)methyl)phenyl)acetamide] | > 10 mg/kg
22 | CCOCC1(CCc2ccccc2)CCN(Cc2ccc(NC(=O)C(C)C)cc2)CC1 [Compound 95, N-(4-((4-(ethoxymethyl)-4-phenethylpiperidin-1-yl)methyl)phenyl)iso-butyramide] | > 10 mg/kg

Row | Compound | ED50
23 | CCOCC1(CCc2ccccc2)CCN(Cc2ccc(NC(C)=O)cc2)C1 (centres unmarked) [Compound 96, N-(4-((3-(ethoxymethyl)-3-phenethylpyrrolidin-1-yl)methyl)phenyl)acetamide] | < 10 mg/kg
24 | CCOCC1(CCc2ccccc2)CN(Cc2ccc(NC(C)=O)cc2)C1.Cl [Compound 97, N-(4-((3-(ethoxymethyl)-3-phenethylazetidin-1-yl)methyl)phenyl)acetamide HCl] | > 10 mg/kg
25 | CCOCC1(CCc2ccccc2)CCCN(Cc2ccc(NC(C)=O)cc2)CC1 (centres unmarked) [Compound 98, N-(4-((4-(ethoxymethyl)-4-phenethylazepan-1-yl)methyl)phenyl)acetamide] | > 10 mg/kg
26 | CCOCC1(CCc2ccccc2)CN(CCc2ccc(NC(C)=O)cc2)C1 [Compound 99, N-(4-(2-(3-(ethoxymethyl)-3-phenethylazetidin-1-yl)ethyl)phenyl)acetamide] | > 10 mg/kg
27 | C=CCCC1(COCC)CCN(Cc2ccc(NC(C)=O)cc2)CC1 [Compound 100, N-(4-((4-(but-3-enyl)-4-(ethoxymethyl)piperidin-1-yl)methyl)phenyl)acetamide] | > 10 mg/kg
28 | CCOCC1(CCC2CC2)CCN(Cc2ccc(NC(C)=O)cc2)CC1 [Compound 101, N-(4-((4-(2-cyclopropylethyl)-4-(ethoxymethyl)piperidin-1-yl)methyl)phenyl)acetamide] | > 10 mg/kg
29 | CCOCC1(CCc2cccs2)CCN(Cc2ccc(NC(C)=O)cc2)CC1.Cl [Compound 102, N-(4-((4-(ethoxymethyl)-4-(2-(thiophen-2-yl)ethyl)piperidin-1-yl)methyl)phenyl)acetamide HCl] | < 10 mg/kg
30 | CCOCC1(CCc2nccs2)CCN(Cc2ccc(NC(C)=O)cc2)CC1.Cl [Compound 103, N-(4-((4-(ethoxymethyl)-4-(2-(thiazol-2-yl)ethyl)piperidin-1-yl)methyl)phenyl)acetamide HCl] | > 10 mg/kg
31 | CCOCC1(CCc2ccc(F)cc2)CCN(Cc2ccc(NC(C)=O)cc2)CC1 [Compound 104, N-(4-((4-(ethoxymethyl)-4-(4-fluoro-phenethyl)piperidin-1-yl)methyl)phenyl)acetamide] | > 10 mg/kg
32 | CCOCC1(CCc2ccc(O)cc2)CCN(Cc2ccc(NC(C)=O)cc2)CC1.Cl [Compound 105, N-(4-((4-(ethoxymethyl)-4-(4-hydroxy-phenethyl)piperidin-1-yl)methyl)phenyl)acetamide HCl] | > 10 mg/kg
33 | CCOCC1(CCc2ccc(OC)cc2)CCN(Cc2ccc(NC(C)=O)cc2)CC1.Cl [Compound 106, N-(4-((4-(ethoxymethyl)-4-(4-methoxy-phenethyl)piperidin-1-yl)methyl)phenyl)acetamide HCl] | > 10 mg/kg
34 | CC(=O)Nc1ccc(CN2CCC(CCc3ccccc3)(COC(F)F)CC2)cc1 [Compound 107, N-(4-((4-((difluoro-methoxy)methyl)-4-phenethylpiperidin-1-yl)methyl)phenyl)acetamide] | > 10 mg/kg
35 | CCOCC1(CCc2ccccc2)CCN(Cc2ccc3[nH]c(=O)[nH]c3c2)CC1 [Compound 108, 5-((4-(ethoxymethyl)-4-phenethylpiperidin-1-yl)methyl)-1H-benzo[d]imidazol-2(3H)-one] | > 10 mg/kg
36 | CCOCC1(CCc2ccccc2)CCN(Cc2ccc3c(c2)CC(=O)N3)CC1 [Compound 109, 5-((4-(ethoxymethyl)-4-phenethylpiperidin-1-yl)methyl)indolin-2-one] | > 10 mg/kg
37 | CCOCC1(CCc2ccccc2)CCN(Cc2ccc3[nH]ccc3c2)CC1 [Compound 110, 5-((4-(ethoxymethyl)-4-phenethylpiperidin-1-yl)methyl)-1H-indole] | > 10 mg/kg
38 | CCOCC1(CCc2ccccc2)CCN(Cc2ccc3[nH]c(=O)oc3c2)CC1 [Compound 111, 6-((4-(ethoxymethyl)-4-phenethylpiperidin-1-yl)methyl)benzo[d]oxazol-2(3H)-one] | > 10 mg/kg
39 | CCOCC1(CCc2ccccc2)CCN(Cc2ccc3[nH]cnc3c2)CC1 [Compound 112, 5-((4-(ethoxymethyl)-4-phenethylpiperidin-1-yl)methyl)-1H-benzo[d]imidazole] | > 10 mg/kg
40 | CC(=O)Nc1ccc(CN2CCC(CCc3ccccc3)(COC3CCCC3)CC2)cc1 [Compound 113, N-(4-((4-(cyclopentyloxy-methyl)-4-phenethylpiperidin-1-yl)methyl)phenyl)acetamide] | > 10 mg/kg
41 | CC(=O)Nc1ccc(CN2CCC(CCc3ccccc3)(COc3ccccc3)CC2)cc1 [Compound 114, N-(4-((4-phenethyl-4-(phenoxy-methyl)piperidin-1-yl)methyl)phenyl)acet-amide] | > 10 mg/kg
42 | CCOCC1(CCc2ccccc2)CCN(Cc2ccc(NC(=O)C(F)(F)F)cc2)CC1 [Compound 115, N-(4-((4-(ethoxymethyl)-4-phenethylpiperidin-1-yl)methyl)phenyl)-2,2,2-trifluoroacetamide] | > 10 mg/kg
43 | CCOCC1(CCc2ccccc2)CCN(Cc2ccc(NC(=O)N(C)C)cc2)CC1 [Compound 116, 3-(4-((4-(ethoxymethyl)-4-phenethylpiperidin-1-yl)methyl)phenyl)-1,1-dimethylurea] | > 10 mg/kg
44 | CCOCC1(CCc2ccccc2)CCN(Cc2ccc(NC(=O)NC)cc2)CC1 [Compound 117, 1-(4-((4-(ethoxymethyl)-4-phenethylpiperidin-1-yl)methyl)phenyl)-3-methylurea] | > 10 mg/kg
